In patent US9127027B2, “Epoxyeicosatrienoic acid analogs and methods of making and using the same” (The Medical College of Wisconsin, Inc., priority 2011, dated 2015):
Like-named read-outs stand apart in the source and are kept apart here.

Experiments:
bovine coronary artery = experiment: Vasorelaxant activity in bovine coronary artery rings precontracted with U-46619; type: cell-based; conditions: for Vascular Relax. % (10 μM) / activation at 10 µM: 100% relaxation = basal pre-U-46619 tension; for EC50: bovine coronary artery, read-out: Vascular Relax. EC50; for activation at 10 µM: read-out: Vascular Relax. % (10 μM)
Procedure: Vasorelaxant activity was measured in bovine coronary artery. Bovine hearts were obtained and the left anterior descending coronary artery was dissected and cleaned of connective tissue. Vessels of 1 mm diameter were cut into rings of 3 mm width as previously described (3, 27, 39). […] The vessels were suspended from a pair of stainless steel hooks in a 6-ml water-jacketed organ chamber. […] One hook was anchored to a steel rod and the other hook to a force transducer (model FT-03C; Grass Instruments, West Warwick, R.I.). Tension of the vessel was measured by an ETH-400 bridge amplifier, and the data were acquired with a MacLab 8e analog-to-digital converter and MacLab software version 3.5.6 (AD Instruments, Milford, Mass.) and stored on a Macintosh computer for subsequent data analysis.
Basal tension was set at the length-tension maximum of 3.5 g and equilibrated for 1.5 h. KCl (40 mM) was added to the chamber until reproducible maximal contractions were maintained. […] Cumulative additions of compounds were added to the chamber. Between concentration-response curves, the chambers were rinsed with fresh Krebs buffer, 40 mM KCl was administered to determine the maximum contraction, and the vessels were rinsed. Consecutive concentration-response curves were performed with 14,15-EET followed by a concentration-response curve to a compound. The experiment was always repeated with the order of the agonists reversed. […] The relaxation was plotted versus compound concentration and the EC50 determined utilizing statistical software.

Human recombinant sEH = Human recombinant sEH (Homo sapiens (Human), UniProt P34913); experiment: Soluble epoxide hydrolase inhibition (PHOME fluorescent substrate); type: biochemical; conditions: Table 1 head prints μM (Table 2 prints nM for same numbers); read-out: sEHi IC50
Chain of Human recombinant sEH (P34913 whole entry): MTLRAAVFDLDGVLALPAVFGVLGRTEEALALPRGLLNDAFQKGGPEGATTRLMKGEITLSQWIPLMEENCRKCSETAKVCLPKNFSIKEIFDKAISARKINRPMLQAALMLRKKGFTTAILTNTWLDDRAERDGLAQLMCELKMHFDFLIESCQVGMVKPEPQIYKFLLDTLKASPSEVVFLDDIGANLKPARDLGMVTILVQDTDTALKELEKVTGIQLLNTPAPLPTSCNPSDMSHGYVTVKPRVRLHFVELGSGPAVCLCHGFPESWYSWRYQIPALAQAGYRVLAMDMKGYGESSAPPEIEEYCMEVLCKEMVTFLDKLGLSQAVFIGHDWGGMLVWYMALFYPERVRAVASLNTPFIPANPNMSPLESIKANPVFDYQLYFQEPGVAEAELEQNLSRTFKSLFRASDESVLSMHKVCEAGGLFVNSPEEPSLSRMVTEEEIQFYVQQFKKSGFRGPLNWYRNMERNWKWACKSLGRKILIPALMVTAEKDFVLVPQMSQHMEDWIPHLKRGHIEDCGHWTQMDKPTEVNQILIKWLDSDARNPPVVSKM
Procedure: Compounds were tested for their ability to inhibit recombinant soluble epoxide hydrolase (sEH) protein. The assay utilizes (3-Phhenyl-oxiranyl)-acetic acid cyano-(6-methoxy-naphthalen-2-yl)-methyl ester (PHOME), a sensitive substrate for sEH that can be used to monitor the activity of both human and murine enzymes. […] Human recombinant sEH was incubated with substrate and compounds ranging in concentration from 0.1 to 1000 nM.

Row | EC50 (bovine coronary artery; Bos taurus) | IC50 (Human recombinant sEH) | EC50 (bovine coronary artery) | Structure (SMILES) | Vascular Relax. % (10 μM) (bovine coronary artery) | activation at 10 µM (bovine coronary artery; Bos taurus)
1 | 2750 nM | > 0.5 µM | – | CCCCCN(C)C(=O)N(C)CCCC/C=C\CCCCCCC(=O)NCC(=O)O [Compound 6, 2-(13-(1,3-Dimethyl-3-n-pentylureido)tridec-8(Z)-enamido)acetic acid] | 92% | –
2 | 900 nM | > 0.5 µM | – | CCCCCNC(=O)NCCCCCOc1cccc2sc(NC(C)=O)nc12 [Compound 31, N-(4-(5-(3-n-Pentylureido)pentyloxy)benzo[d]thiazol-2-yl)acetamide] | 73% | –
3 | 2400 nM | 0.231 µM | – | CCCCCNC(=O)NCCCC/C=C\CCCCCCc1nsc(=O)[nH]1 [Compound 29] | 54% | –
4 | 1700 nM | > 0.5 µM | – | CCCCNC(=O)C(=O)NCCCC/C=C\CCCCCCc1nnn[nH]1 [Compound 21] | 96% | –
5 | – | > 0.5 µM | 2900 nM | CCCCCCC(=O)N(CCCC/C=C\CCCCCCC(=O)OCCOCCOCCO)C(C)C [Compound 1, 2-(2-(2-Hydroxyethoxy)ethoxy)ethyl 13-(N-isopropylheptanamido)tridec-8(Z)-enoate] | 86% | –
6 | 340 nM | 0.01 µM | – | CCCCCNC(=O)NCCCC/C=C\CCCCCCC1=NOS(=O)N1 (stereo not shown) [Compound 25] | 109% | –
7 | – | > 0.5 µM | 1500 nM | CCCCNC(=O)C(=O)NCCCC/C=C\CCCCCCC(=O)OCCOCCOCCO [Compound 3, 2-(2-(2-Hydroxyethoxy)ethoxy)ethyl13-(2-(n-butylamino)-2 oxoacetamido)tridec-8(Z)-enoate] | 104% | –
8 | 1100 nM | 0.065 µM | – | CCCCCNC(=O)NCCCC/C=C\CCCCCCc1noc(=O)[nH]1 [Compound 23] | 89% | –
9 | 1000 nM | – | – | CCCCCCC(=O)N(CCCC/C=C\CCCCCCc1nnn[nH]1)C(C)C [Compound 19] | 74% | –
10 | 9800 nM | 0.032 µM | – | CCCCCNC(=O)NCCCC/C=C\CCCCCSc1ncn[nH]1 [Compound 16] | – | 53%
11 | – | – | 5100 nM | CCCCCNC(=O)NCCCC/C=C\CCCCCCC(=O)OCCOCCOCCO [Compound 2, 2-(2-(2-Hydroxyethoxy)ethoxy)ethyl 13-(3-n-pentylureido)tridec-8(Z)-enoate] | 72% | –
12 | 7600 nM | 0.057 µM | – | CCCCCNC(=O)NCCCC/C=C\CCCCCCS(=O)(=O)[O-].[Na+] [Compound 11] | 63% | –
13 | 2400 nM | – | – | CCCCNC(=O)C(=O)NCCCCCOc1cccc2sc(NC(C)=O)nc12 [Compound 32] | 96% | –
14 | 1900 nM | – | – | CCCCCCC(=O)N(CCCC/C=C\CCCCCCC(=O)NCC(=O)O)C(C)C [Compound 5, 2-(13-(N-Isopropylheptanamido)tridec-8(Z)-enamido)acetic acid] | 95% | –
15 | 630 nM | 0.237 µM | – | CCCCCNC(=O)NCCCC/C=C\CCCCOCC(=O)O [Compound 4, 2-(10-(3-n-Pentylureido)dec-5(Z)-enyloxy)acetic acid] | 49% | –
16 | 3100 nM | 0.023 µM | – | CCCCCNC(=O)NCCCC/C=C\CCCCCS(=O)(=O)c1ncn[nH]1 [Compound 18] | – | 92%
17 | 6700 nM | 0.071 µM | – | CCCCCNC(=O)NCCCC/C=C\CCCCCCC(=O)NS(C)(=O)=O [Compound 9, N-(Methylsulfonyl)-13-(3-n-pentylureido)tridec-8(Z)-enamide] | 61% | –
18 | 3400 nM | 0.032 µM | – | CCCCCNC(=O)NCCCC/C=C\CCCCCNS(=O)(=O)c1ccccc1 [Compound 12, N-(11-(3-n-Pentylureido)undec-6(Z)-enyl)benzenesulfonamide] | – | 75%
19 | 3300 nM | 0.031 µM | – | CCCCCNC(=O)NCCCC/C=C\CCCCCCc1noc(=S)[nH]1 [Compound 28] | 93% | –
20 | 3700 nM | 0.022 µM | – | CCCCCNC(=O)NCCCC/C=C\CCCCCSc1nnn[nH]1 [Compound 15, 1-(11-(1H-Tetrazol-5-ylthio)undec-5(Z)-enyl)-3-pentylurea] | – | 85%
21 | > 10000 nM | 0.006 µM | – | CCCCCNC(=O)NCCCC/C=C\CCCCCSc1ccccc1O [Compound 13, 1-(11-(2-Hydroxyphenylthio)undec-5(Z)-enyl)-3-n-pentylurea] | – | 48%
22 | 6000 nM | 0.041 µM | – | CCCCCNC(=O)NCCCC/C=C\CCCCCCC(=O)NS(=O)(=O)c1ccccc1 [Compound 8, 13-(3-n-Pentylureido)-N-(phenylsulfonyl)tridec-8(Z)-enamide] | 73% | –
23 | 3500 nM | 0.096 µM | – | CCCCCNC(=O)NCCCC/C=C\CCCCC[S+]([O-])c1ncn[nH]1 (stereo not shown) [Compound 17] | – | 92%
24 | 1100 nM | 0.032 µM | – | CCCCCNC(=O)NCCCC/C=C\CCCCCCCc1nnn[nH]1 [Compound 22, 1-(13-(1H-Tetrazol-5-yl)tridec-5(Z)-enyl)-3-n-pentylurea] | 110% | –
25 | 5000 nM | – | – | CCCCCNC(=O)NCCCC/C=C\CCCCCS(=O)(=O)c1ccccc1O [Compound 14, 1-(11-(2-Hydroxyphenylsulfonyl)undec-5(Z)-enyl)-3-n-pentylurea] | – | 76%
26 | 360 nM | > 0.5 µM | – | CCCCNC(=O)C(=O)NCCCC/C=C\CCCCCCC1=NOS(=O)N1 (stereo not shown) [Compound 27] | – | 116%
27 | > 10000 nM | 0.057 µM | – | CCCCCNC(=O)NCCCC/C=C\CCCCCC1SC(=O)NC1=O (stereo not shown) [Compound 24, 1-(11-(2,4-Dioxothiazolidin-5-yl)undec-5(Z)-enyl)-3-n-pentylurea] | – | 47%

Row | Structure (SMILES) | EC50 (bovine coronary artery; Bos taurus) | IC50 (Human recombinant sEH) | EC50 (bovine coronary artery) | Vascular Relax. % (10 μM) (bovine coronary artery) | activation at 10 µM (bovine coronary artery; Bos taurus)
28 | CCCCCNC(=O)NCCCC/C=C\CCCCCCP(=O)([O-])[O-].[Na+].[Na+] [Compound 10] | > 10000 nM | > 0.5 µM | – | 71% | –
